Results: paper PMC7048748, “Anxiolytic Drug FGIN-1-27 Ameliorates Autoimmunity by Metabolic Reprogramming of Pathogenic Th17 Cells” (Scientific Reports, 2020)

Key:
ATF4 = test: Western blot for ATF4; type: cell-based, mouse; conditions: 24 hours, compared to DMSO controls
Protocol: (a) MA-plot showing shrunken log2 fold-changes of detected genes between the DMSO and FGIN-1-27 RNA-seq samples, ranked by average normalized count. Red dots indicate differentially expressed genes at adjusted p-value <0.05. (b) Transcript levels for the indicated genes after 24 hours of treatment with DMSO or FGIN-1-27 quantified by qPCR. The error bars represent SD. (c) Western blot analysis for phosphorylated eIF2α and ATF4 24 hours after treatment with DMSO or FGIN-1-27 (5 and 10 µM). Data are representative of 3 independent experiments. (d) Amino acids in Th17 cells measured 72 hours after treatment with FGIN-1-27. The error bars represent SD. (e) ROS was measured using cell permeant reagent 2′,7′ –dichlorofluorescin diacetate (DCFDA) at 24 hours following treatment with FGIN-1-27. Filled grey histogram-DMSO, dotted line-FGIN-1-27 (10 µM) and dashed line indicates FGIN-1-27 (5 µM). […] Data are normalized using DMSO treated cells as 100% and the error bars represent SD.
Cell lysates were prepared by lysis in RIPA buffer containing protease and phosphatase inhibitors and immunoblotting was performed by standard methods.
(a) W estern blot analysis for phosphorylated eIF2α and ATF4 24 hours after treatment
with DMSO or FGIN-1-27 (5 and 10 µM). […]
(a) Indicated sterols were measured in Th17 cells treated with DMSO or FGIN-1-27 for […]

ZAP70 = test: Phospho ZAP70 staining after anti-CD3/CD28 stimulation; type: cell-based, mouse; conditions: 10 μM, 24 hours
Protocol: The following day, cells were treated with either DMSO or of FGIN-1-27 (10 μM). For phospho-ZAP70 analyses, cells were stained after 24 hours of treatment using 10 μg/ml of biotinylated anti-CD3 (145-2C11, BD Biosciences) and anti-CD28 (37.51, BD Biosciences) antibodies on ice for 15 minutes, washed, and stimulated in presence of 20 μg/ml of Streptavidin for 10 minutes at 37 degrees. Cells were then fixed in 2% PFA, permeabilized in Methanol/Acetone and stained with anti-phospho ZAP70 antibody (n3kobu5, eBioscience) and anti-CD4 (RM4-5, eBioscience). For phospho-STAT3 analyses, cells were cultured for additional 24 hours in IL-6 free media, before stimulation with 100 ng/ml of mIL-6 for 30 minutes. Cells were then fixed in 2% PFA, permeabilized in Methanol/Acetone and stained with anti-phospho-STAT3 antibody (4/P-STAT3, BD Biosciences) and anti-CD4. Dead cells were excluded using Live/Dead […] (Thermo Fisher) staining prior to stimulation. page 3: Supplementary Figur es Fig S1 (a) Genomic browser screenshot of Tspo depicting normalized RNA-seq read coverage (RPM) in different T cell subsets. Data were downloaded from NCBI GEO (accession number GSE40918) and processed as in Figure 4A. […] (g) Transcript levels for S ta t3 after 24 hours of treatment with DMSO or FGIN-1-27 quantified by qPCR. […]

Th17 cells = test: Whole-transcriptome RNA sequencing of treated CD4+ T cells; type: cell-based, mouse
Protocol: Total RNA extractions for RNA-seq were performed using the mirVana kit (Applied Biosystems). RNA concentration was measured using the Qubit RNA broad range assay in the Qubit Flurometer (Invitrogen) and RNA integrity was determined with Eukaryote Total RNA Nano Series II ChIP on a 2100 Bioanalyzer (Agilent). RNA-seq libraries were prepared using TruSeq RNA sample preparation kit (Illumina). In brief, oligo-dT purified mRNA was fragmented and subjected to first and second strand cDNA synthesis. cDNA fragments were blunt ended, ligated to Illumina adaptors and PCR amplified to enrich for the fragments ligated to adaptors. The resulting cDNA libraries were verified and quantified on Agilent Bioanalyzer and single-end 96 cycle sequencing was conducted (Illumina).
Reads were aligned to the mm10 genome and the GRCm38 v87 transcriptome with STAR v2.5.2a using default parameters and output tracks normalized by RPM (–outWigNorm RPM). RSEM v1.3 was used to calculate gene counts and TPMs on the transcriptome-aligned reads as previously described[37]. Differential expression analysis was performed in R v3.5.2, using DESeq. 2 v1.22.2. […] Heatmaps were generated with the R package, heatmap. Integrative Genomics Viewer v2.4.19 was used for visualization of normalized bigwig tracks.

[1] = set-up: method as in PMID 21119734, PMID 1326631, PMID 29698632; conditions: cited from earlier work
polarized Th17 cells = test: IL-17 production in fully differentiated Th17 cells after re-stimulation; type: cell-based, mouse; conditions: on re-stimulation
Protocol: We also tested whether FGIN-1-27 regulated IL-17 production in fully differentiated Th17 cells. […] Thus, FGIN-1-27 inhibits Th17 cell differentiation in vitro without compromising T cell activation or survival.
(h) Dose response plot showing effect of FGIN-1-27 on intracellular IL-17 and viability in pre- differentiated Th17 cells after re- stimulation. Data is normalized against […]
(i) Mean clinical scores of mice following active induction of EAE. Mice were injected i/p twice daily with vehicle or FGIN-1-27 for 7 days. Data are pooled from 5 mice/group. The error bars represent SEM.
(j) Binding of FGIN-1-27 to TSPO in a radioligand displacement assay. Inhibition of binding of control (radiolabeled PK-11195) was used to determine binding of FGIN- […]
(1 picture or pasted object on this page, not shown here)

For `CCCCCCN(CCCCCC)C(=O)Cc1c(-c2ccc(F)cc2)[nH]c2ccccc12` [FGIN-1-27, N, N-di-n-hexyl 2-(4-fluorophenyl) indole-3-acetamide], the “increase in ATF4 translation” value (ATF4) was 2.8 fold, the “phosphorylation of ZAP70” value (ZAP70) was “did not phosphorylate ZAP70” and the “genes encoding glycolytic enzymes (hexokinase, phosphofructokinase, pyruvate kinase)” value (Th17 cells; 24 hours) was “significantly down-regulated”. The differentially expressed genes (Th17 cells; vs DMSO, FDR < 0.05, 24 hours) was 587, the “crossing of the blood brain barrier” value [1] was “can cross the blood brain barrier” and the “IL-17 producing cells in fully differentiated Th17 cells” value (polarized Th17 cells) was “fewer IL-17 producing cells were detected”.
